Measurements published in patent publication US10233186B2, “Inhibitors of activin receptor-like kinase” (BLUEPRINT MEDICINES CORPORATION, priority 2016, dated 2019).
Where two headings read alike, the source gives them in different places.

How the values were obtained:
[1] = target: T1, ALK2 R206H (GST-tagged mutant ALK2) (Homo sapiens, UniProt Q04771, R206H); assay: ALK binding assay (LANTHASCREEN TR-FRET competitive binding, displacement of Kinase Tracer 178)
T1 construct: purchased Carna Bioscience or ThermoFisher 09-148 or PV6232
T1 sequence (Q04771 21-509 R206H): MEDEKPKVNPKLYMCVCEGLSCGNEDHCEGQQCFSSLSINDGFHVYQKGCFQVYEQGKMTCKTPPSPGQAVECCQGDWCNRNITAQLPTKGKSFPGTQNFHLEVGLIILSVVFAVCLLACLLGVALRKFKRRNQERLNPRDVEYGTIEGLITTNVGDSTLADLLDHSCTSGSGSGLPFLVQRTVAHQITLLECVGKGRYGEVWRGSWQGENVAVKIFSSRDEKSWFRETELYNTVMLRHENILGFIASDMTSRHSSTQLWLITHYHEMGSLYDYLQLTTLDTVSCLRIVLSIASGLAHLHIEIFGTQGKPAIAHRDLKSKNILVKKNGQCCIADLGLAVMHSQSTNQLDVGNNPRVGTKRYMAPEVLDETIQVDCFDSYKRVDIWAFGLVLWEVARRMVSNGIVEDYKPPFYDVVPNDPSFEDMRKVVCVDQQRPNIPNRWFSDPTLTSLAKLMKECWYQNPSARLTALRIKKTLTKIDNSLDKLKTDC

human ALK2 R206H = target: T2, human ALK2 R206H (Homo sapiens, UniProt Q04771, R206H); assay: Cell-based ALK2-R206H cell activity assay (Smad1-Ser463/Ser465 phosphorylation by AlphaLISA in HEK293-ALK2-R206H cells)
T2 construct: expressed in transfected cells; host or cells: HEK293 (ATCC CRL1573), lentivirus transduction, blasticidin selection
T2 sequence (Q04771 21-509 R206H): T1 sequence (Q04771 21-509 R206H)
In short: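 Stable HEK293 cells expressing C-terminally FLAG-tagged human ALK2 R206H (lentiviral, blasticidin-selected) were treated with compounds in 10-point, 3-fold dilutions from 10 μM or 1 μM top, in duplicate. Smad1 Ser463/Ser465 phosphorylation was read by AlphaLISA.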

[2] = ALK2 R206H, LANTHASCREEN TR-FRET competitive binding, read-out: Binding Assay (IC50)
[3] = read-out: Cell Line (Cell Assay IC50)

Row | SMILES | IC50 [1, 2] | IC50 (human ALK2 R206H; [3]) | IC50 [1] | IC50 (human ALK2 R206H; Cell Line (Cell Assay IC50))
1 | CCNC(=O)N1CCN(c2ccnn3cc(-c4ccc(C5(OC)CCN(C(C)C)CC5)c(F)c4)cc23)CC1 [Compound 697] | < 10 nM | < 100 nM |  | 
2 | CC1(C)CC(O)(c2ccc(-c3cc4c(N5CCN(C(=O)C6CC6)CC5)ccnn4c3)cc2)CC(C)(C)N1 [Compound 813] |  |  | < 10 nM | < 100 nM
3 | CCN1CC2CN(c3ccnn4cc(-c5ccc(N6CCN(C(C)C)CC6)cc5)cc34)CCN2C1=O (centres unmarked) [Compound 329] | < 10 nM | 100 to 500 nM |  | 
4 | CC(C)NC(=O)N1CCN(c2ccnn3cc(-c4ccc([C@]5(C)CN(C(C)C)CCN5)cc4)cc23)CC1 [Compound 634] | < 10 nM | < 100 nM |  | 
5 | CCOC(=O)N1CCN(c2ccnn3cc(-c4ccc([C@]5(C)CN(C(C)C)CCN5C)cc4)cc23)CC1 [Compound 641] | < 10 nM | < 100 nM |  | 
6 | COC[C@H](C)N1CCC(OC)(c2ccc(-c3cc4c(N5CCN(C(=O)OC6COC6)CC5)ccnn4c3)nc2)CC1 [Compound 743] | < 10 nM | < 100 nM |  | 
7 | O=C(OC1COC1)N1CCN(c2ccnn3cc(-c4ccc(C5(C(F)(F)F)CCNCC5)cc4)cc23)CC1 [Compound 843] | < 10 nM | < 100 nM |  | 
8 | CCNC(=O)N1CCN(c2ccnn3cc(-c4ccc(C5(O)CCN(C(C)C)CC5)cc4)cc23)CC1 [Compound 352] | < 10 nM | 100 to 500 nM |  | 
9 | CCN1CC2(C1)CN(c1ccc(-c3cc4c(N5CCN(C(=O)[C@@H]6C[C@H]6F)CC5)ccnn4c3)cc1)C2 [Compound 332] | < 10 nM | < 100 nM |  | 
10 | O=C(C1CC1)N1CCN(c2ccnn3cc(-c4ccc(OC5CCCNC5)cc4)cc23)CC1 (centres unmarked) [Compound 159] | < 10 nM | < 100 nM |  | 
11 | CC(C)N1CCN[C@](C)(c2ccc(-c3cc4c(N5CCN(C(=O)C6CC6)CC5)ccnn4c3)nc2)C1 [Compound 575] | < 10 nM | 100 to 500 nM |  | 
12 | COC1(c2ccc(-c3cc4c(N5CCN(C(=O)C6CCC(C#N)CC6)CC5)ccnn4c3)cc2)CN(C(C)C)C1 (centres unmarked) [Compound 729] | < 10 nM | < 100 nM |  | 
13 | COC1(c2ccc(-c3cc4c(N5CCN(C(=O)C6CC6)CC5)ccnn4c3)cc2F)CCN(C(C)C)CC1 [Compound 680] | < 10 nM | < 100 nM |  | 
14 | CC(C)N1CCC(c2ccc(-c3cc4c(N5CCN(C(=O)NCC6COC6)CC5)ccnn4c3)cc2)CC1 [Compound 661] | < 10 nM | 100 to 500 nM |  | 
15 | CO[C@]1(c2ccc(-c3cc4c(N5CCN(C(=O)NC(C)C)CC5)ccnn4c3)nc2)CCCN(C(C)C)C1 [Compound 687] | < 10 nM | < 100 nM |  | 
16 | CCNC(=O)N1CCN(c2ccnn3cc(-c4ccc(C5CCN(C(C)C)CC5)nn4)cc23)CC1 [Compound 548] | < 10 nM | > 500 nM |  | 
17 | COC1(c2ccc(-c3cc4c(N5CCN(C(=O)NC(C)C)CC5)ccnn4c3)nc2)CCN(C(C)C)CC1 [Compound 688] | < 10 nM | < 100 nM |  | 
18 | CC(C)N1CC(O)(c2ccc(-c3cc4c(N5CCN(C(=O)C6CC6)CC5)ccnn4c3)cc2)C1 [Compound 219] | < 10 nM | < 100 nM |  | 
19 | O=C(C1CC1)N1CCN(c2ccnn3cc(-c4ccc([C@@H]5CNCCO5)cc4)cc23)CC1 [Compound 131, (R)-cyclopropyl(4-(6-(4-(morpholin-2-yl)phenyl)pyrrolo[1,2-b]pyridazin-4-yl)piperazin-1-yl)methanone] | < 10 nM | 100 to 500 nM |  | 
20 | CCOC1(c2ccc(-c3cc4c(N5CCN(C(=O)OC6COC6)CC5)ccnn4c3)nc2)CCN(C[C@H](C)F)CC1 [Compound 882] | < 10 nM | < 100 nM |  | 
21 | CCN1CCC(c2ccc(-c3cc4c(N5CCN(C(=O)[C@H]6C[C@H](O)C6)[C@H](C)C5)ccnn4c3)cc2)CC1 [Compound 382] | < 10 nM | < 100 nM |  | 
22 | CC(C)NC(=O)N1CCN(c2ccnn3cc(-c4cnn([C@H]5CCCNC5)c4)cc23)CC1 [Compound 470] | < 10 nM | < 100 nM |  | 
23 | CCN1CCN(c2ccc(-c3cc4c(N5CCN(C(=O)C6CC6)CC5)ccnn4c3)cc2)C[C@H]1C [Compound 264] | < 10 nM | 100 to 500 nM |  | 
24 | CC(C)NC(=O)N1CCN(c2ccnn3cc(-c4ccc([C@@H]5CN(C(C)C)CC[C@H]5OC(F)F)cc4)cc23)CC1 [Compound 869] | < 10 nM | < 100 nM |  | 
25 | CCN1CCC(c2ccc(-c3cc4c(N5CCN(C(=O)OC(C)C)CC5)ccnn4c3)cc2)CC1 [Compound 285] | < 10 nM | < 100 nM |  | 

Row | SMILES | IC50 [1, 2] | IC50 (human ALK2 R206H; [3]) | IC50 [1] | IC50 (human ALK2 R206H; Cell Line (Cell Assay IC50))
26 | CC(C)N1CCC(c2ccc(-c3cc4c(N5CCN(C(=O)OC(CO)CO)CC5)ccnn4c3)cc2)CC1 [Compound 836] | < 10 nM | 100 to 500 nM |  | 
27 | Cc1cc(-c2cc3c(N4CCN(C(=O)C5CC5)CC4)ccnn3c2)ccc1[C@@H]1CCN(C(C)C)C1 [Compound 503] | < 10 nM | 100 to 500 nM |  | 
28 | CC(C)N1CCC(c2ccc(-c3cc4c(N5CCN(C(=O)[C@H]6CC[C@H](C#N)CC6)CC5)ccnn4c3)nc2)CC1 [Compound 437] | < 10 nM | < 100 nM |  | 
29 | CC(C)NC(=O)N1CCN(c2ccnn3cc(-c4ccc([C@@]5(C)CN(C(C)C)CCN5C)cc4)cc23)CC1 [Compound 672] | < 10 nM | < 100 nM |  | 
30 | CC(C)N1CCC(c2ccc(-c3cc4c(N5CCN(C(=O)OC(CO)C(=O)O)CC5)ccnn4c3)cc2)CC1 (centres unmarked) [Compound 847, 3-hydroxy-2-(4-(6-(4-(1-isopropylpiperidin-4-yl)phenyl)pyrrolo[1,2-b]pyridazin-4-yl)piperazine-1-carbonyloxy)propanoic acid] | < 10 nM | > 500 nM |  | 
31 | CCN1CCC(c2ccc(-c3cc4c(N5CCN(C(=O)N6CC(C#N)C6)CC5)ccnn4c3)cc2)CC1 [Compound 370] | < 10 nM | < 100 nM |  | 
32 | [2H]C([2H])([2H])C([2H])([2H])N1CCN(c2ccc(-c3cc4c(N5CCN(C(=O)C6CC6)CC5)ccnn4c3)cc2)CC1 [Compound 237] | < 10 nM | < 100 nM |  | 
33 | CC(C)N1CC[C@H](c2ccc(-c3cc4c(N5CCN(C(=O)C6CC6)CC5)ccnn4c3)cc2F)C1 [Compound 284] | < 10 nM | < 100 nM |  | 
34 | CCN1CCC(COc2ccc(-c3cc4c(N5CCN(C(=O)C6CC6)CC5)ccnn4c3)cc2)C1 (centres unmarked) [Compound 270] | < 10 nM | < 100 nM |  | 
35 | CC(C)N1CCC[C@@]1(C)c1ccc(-c2cc3c(N4CCN(C(=O)C5CC5)CC4)ccnn3c2)cc1 [Compound 509] | < 10 nM | < 100 nM |  | 
36 | CC(C)N1CCC[C@@H](c2ccc(-c3cc4c(N5CCN(C(=O)[C@H]6CC[C@H](C#N)CC6)CC5)ccnn4c3)cc2)C1 [Compound 434] | < 10 nM | < 100 nM |  | 
37 | COC[C@@H](C)N1CCC(OC)(c2ccc(-c3cc4c(N5CCN(C(=O)NC(C)C)CC5)ccnn4c3)nc2)CC1 [Compound 735] | < 10 nM | < 100 nM |  | 
38 | CCO[C@@]1(c2ccc(-c3cc4c(N5CCN(C(=O)NC(C)C)CC5)ccnn4c3)nc2)CCCNC1 [Compound 797] | < 10 nM | < 100 nM |  | 
39 | CCN1CCN(c2ccc(-c3cc4c(N5CCN(C(=O)N6CC(O)C6)CC5)ccnn4c3)cc2)CC1 [Compound 344] | 10 to 50 nM | 100 to 500 nM |  | 
40 | CC(C)N1CC[C@](O)(c2ccc(-c3cc4c(N5CCN(C(=O)C6CC6)CC5)ccnn4c3)nc2)C1 [Compound 527] | < 10 nM | < 100 nM |  | 
41 | COC1(c2ccc(-c3cc4c(N5CCN(C(=O)NC(C)C)CC5)ccnn4c3)c(C#N)c2)CCN(C(C)C)CC1 [Compound 852] | < 10 nM | < 100 nM |  | 
42 | O=C(OC(CO)CO)N1CCN(c2ccnn3cc(-c4ccc(C5CCNCC5)cc4)cc23)CC1 [Compound 789, 1,3-dihydroxypropan-2-yl 4-(6-(4-(piperidin-4-yl)phenyl)pyrrolo[1,2-b]pyridazin-4-yl)piperazine-1-carboxylate] | < 10 nM | > 500 nM |  | 
43 | COC1(c2ccc(-c3cc4c(N5CCN(C(=O)OC6COC6)CC5)ccnn4c3)c(C#N)c2)CCN(C(C)C)CC1 [Compound 873] | < 10 nM | < 100 nM |  | 
44 | CC(C)N1CCN[C@@H](c2ccc(-c3cc4c(N5CCN(C(=O)C6CC6)CC5)ccnn4c3)cc2)C1 [Compound 518] | < 10 nM | < 100 nM |  | 
45 | CC(C)N1CC[C@H](O)[C@@H](c2ccc(-c3cc4c(N5CCN(C(=O)OC6COC6)CC5)ccnn4c3)cc2)C1 [Compound 678] | < 10 nM | < 100 nM |  | 
46 | CC(C)NC(=O)N1CCN(c2ccnn3cc(-c4ccc(C5(C(F)(F)F)CCNCC5)cc4)cc23)CC1 [Compound 823] | < 10 nM | < 100 nM |  | 
47 | CCO[C@@]1(c2ccc(-c3cc4c(N5CCN(C(=O)NC(C)C)CC5)ccnn4c3)cc2)CCN(C(C)C)C1 [Compound 677] | < 10 nM | < 100 nM |  | 
48 | CCNC(=O)N1CCN(c2ccnn3cc(-c4cnc(N5CCN(C(C)C)CC5)cn4)cc23)CC1 [Compound 554] | < 10 nM | 100 to 500 nM |  | 
49 | O=C(OC1COC1)N1CCN(c2ccnn3cc(-c4ccc([C@@H]5CCCN5)cn4)cc23)CC1 [Compound 476] | < 10 nM | < 100 nM |  | 
